The target of assay [1] is T1, human recombinant A1 adenosine receptor (Homo sapiens, UniProt P30542).
T1 construct: expressed in transfected cells; host or cells: CHO
T1 sequence (P30542 1-326): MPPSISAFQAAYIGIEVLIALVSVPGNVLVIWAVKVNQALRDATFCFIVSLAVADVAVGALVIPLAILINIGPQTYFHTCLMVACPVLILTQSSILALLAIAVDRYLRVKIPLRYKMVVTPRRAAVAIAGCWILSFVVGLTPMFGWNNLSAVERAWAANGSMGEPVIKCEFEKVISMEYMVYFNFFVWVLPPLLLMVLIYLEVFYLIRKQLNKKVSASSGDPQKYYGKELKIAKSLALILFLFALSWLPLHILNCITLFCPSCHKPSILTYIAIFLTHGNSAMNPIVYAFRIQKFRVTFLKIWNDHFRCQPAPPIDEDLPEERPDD
As to the kind of experiment: Human cloned A1 receptor binding, [3H]-DPCPX, CHO cells. Particulars: read-out: hA1 (Ki). As for the experimental part:
(§1) The expression of the human A1, A2A, A2B and A3 receptors in CHO cells has been previously described (Klotz et al., 1998). The cells are grown adherently and maintained in Dulbecco's modified Eagle's medium with nutrient mixture F12 without nucleosides at 37 ° C. in 5% CO2/95% air. Cells are split two or three times weekly and then the culture medium is removed for membrane preparations. The cells are washed with phosphate-buffered saline and scraped off flasks in ice cold hypotonic buffer (5 mM Tris HCl, 2 mM EDTA, pH 7.4). The cell suspension is homogenized with Polytron and the homogenate is centrifuged for 30 min. at 48,000 g. The membrane pellet is re-suspended in 50 mM Tris HCl buffer at pH 7.4 for A1 adenosine receptors, in 50 mM Tris HCl, 10 mM MgCl2 at pH 7.4 for A2A adenosine receptors, in 50 mM Tris HCl, 10 mM MgCl2, 1 mM EDTA at pH 7.4 for A3 adenosine receptors and are utilized for binding and adenylate cyclase assays.
Binding of [^3H]-DPCPX to CHO cells transfected with the human recombinant A1 adenosine receptor is performed according to the method previously described by Klotz and coworkers (Klotz, K. N.; Cristalli, G.; Grifantini, M.; Vittori, S.; Lohse, M. J., “Photoaffinity labeling of A1 adenosine receptors,” J. Biol. Chem., 260, 14659-14664, 1985).
(§2) Displacement experiments are performed for 120 min. at 25° C. in 0.20 mL of buffer containing 1 nM [^3H]-DPCPX, 20 μL of diluted membranes (50 μg of protein/assay) and at least 6-8 different concentrations of examined compounds. Non-specific binding is determined in the presence of 10 μM of CHA and this is always 10% of the total binding. Binding of [^3H]-SCH58261 to CHO cells transfected with the human recombinant A2A adenosine receptors (50 μg of protein/assay) was performed according to Varani et al. (Varani, K; Cacciari, B.; Baraldi, P. G.; Dionisotti, S.; Ongini, E.; Borea, P. A., “Binding affinity of adenosine receptor agonists and antagonists at human cloned […] adenosine receptors,” Life Sci., 63, 81-87, 1998). In competition studies, at least 6-8 different concentrations of compounds are used and non-specific binding is determined in the presence of 50 μM NECA for an incubation time of 60 min. at 25° C.

For assay [2], the target named is T2, human recombinant A2B adenosine receptors (Homo sapiens, UniProt P29275).
T2 construct: host or cells: HEK-293
T2 sequence (P29275 1-332): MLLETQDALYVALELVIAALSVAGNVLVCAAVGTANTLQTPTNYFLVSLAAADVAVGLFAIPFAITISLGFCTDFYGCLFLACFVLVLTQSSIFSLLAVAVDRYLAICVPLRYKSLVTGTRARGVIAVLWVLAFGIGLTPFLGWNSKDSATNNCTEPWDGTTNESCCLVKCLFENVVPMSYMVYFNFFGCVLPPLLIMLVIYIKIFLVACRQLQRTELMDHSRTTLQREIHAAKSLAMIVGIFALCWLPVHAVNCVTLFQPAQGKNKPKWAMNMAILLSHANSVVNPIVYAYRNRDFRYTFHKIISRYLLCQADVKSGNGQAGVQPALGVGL
As to the kind of experiment: Human cloned A2B receptor binding, [3H]-DPCPX, HEK-293 cells. Particulars: read-out: hA2B (Ki). The protocol:
Binding of [^3H]-DPCPX to HEK-293 cells (Receptor Biology, Inc., Beltsville, Md.) transfected with the human recombinant A2B adenosine receptors is performed essentially to the method described by Varani and coworkers (Mol. Pharmacol.). In particular, assays are carried out for 60 min. at 25° C. in 0.1 mL of 50 mM Tris HCl Buffer, 10 mM MgCl2, 1 mM EDTA, 0.1 mM benzamidine pH 7.4, 2 IU/ml adenosine deaminase containing 40 nM [^3H]-DPCPX, diluted membranes (20 µg of protein/assay) and at least 6-8 different concentration of tested compounds. Non-specific binding is determined in the presence of 100 μM of NECA and is always 30% of the total binding.

For assay [3], the target named is T3, human recombinant A2A adenosine receptors (Homo sapiens, UniProt P29274).
T3 construct: expressed in transfected cells; host or cells: CHO
The assay is described as follows: Human cloned A2A receptor binding, [3H]-SCH58261, CHO cells. The note with it: read-out: hA2A (Ki). As for the experimental part: as §1, §2

The target of assay [4] is T4, human recombinant A3 adenosine receptor (Homo sapiens, UniProt P0DMS8).
T4 sequence (P0DMS8 1-318): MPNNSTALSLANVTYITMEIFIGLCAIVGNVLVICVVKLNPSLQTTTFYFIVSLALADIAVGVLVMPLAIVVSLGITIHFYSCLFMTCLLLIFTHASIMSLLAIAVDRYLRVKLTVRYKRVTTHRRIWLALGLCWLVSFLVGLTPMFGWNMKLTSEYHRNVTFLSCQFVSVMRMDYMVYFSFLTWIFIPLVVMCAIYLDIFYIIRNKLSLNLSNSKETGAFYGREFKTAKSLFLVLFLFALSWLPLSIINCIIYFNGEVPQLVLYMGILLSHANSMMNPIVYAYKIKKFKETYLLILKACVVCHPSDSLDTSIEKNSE
The assay is described as follows: Human cloned A3 receptor binding, [3H] MRE3008-F20, CHO cells. Particulars: for Ki: CHO cells, [3H] MRE3008-F20, read-out: hA3 (Ki); for hA1/hA3 / hA2A/hA3 / hA2B/hA3: selectivity ratio of Ki values. More on the design: expressed in transfected cells; host or cells: CHO.
Method: The cells are grown adherently and maintained in Dulbecco's modified Eagle's medium with nutrient mixture F12 without nucleosides at 37 ° […] Cells are split two or three times weekly and then the culture medium is removed for membrane preparations. The cells are washed with phosphate-buffered saline and scraped off flasks in ice cold hypotonic buffer (5 mM Tris HCl, 2 mM EDTA, pH 7.4). The cell suspension is homogenized with Polytron and the homogenate is centrifuged for 30 min. at 48,000 g. The membrane pellet is re-suspended in 50 mM Tris HCl buffer at pH 7.4 for A1 adenosine receptors, in 50 mM Tris HCl, 10 mM MgCl2 at pH 7.4 for A2A adenosine receptors, in 50 mM Tris HCl, 10 mM MgCl2, 1 mM EDTA at pH 7.4 for A3 adenosine receptors and are utilized for binding and adenylate cyclase assays.

The next assay has as its target T5, adenosine A3 receptor (Homo sapiens, UniProt P0DMS8).
T5 construct: expressed in transfected cells; host or cells: CHO
T5 sequence (P0DMS8 1-318): T4 sequence (P0DMS8 1-318)
The assay is described as follows: Adenylate cyclase assay: block of agonist-induced inhibition of cAMP production. The format is biochemical. The note with it: FIG. 2, comparison in words. As for the experimental part: as §1
Membrane preparation is suspended in 0.5 mL of incubation mixture (50 mM Tris HCl, MgCl2 10 mM, EDTA, 1 mM, pH 7.4) containing GTP 5 µM, 0.5 mM 4-(3-buthoxy-4-methoxybenzyl)-2-imidazolidinone (Ro 20-1274) as phosphodiesterase inhibitor, 2.0 IU/mL adenosine deaminase and pre-incubated for 10 min. in a shaking bath at 37° C. […]
(cAMP levels reflect the balance of adenylyl cyclase and phosphodiesterase activity.)

For assay [5], the target named is T6, adenosine A3 receptors in HL60 membranes (Homo sapiens, UniProt P0DMS8).
T6 construct: endogenous in cells; host or cells: HL60 (promyelocytic human leukaemia)
T6 sequence (P0DMS8 1-318): T4 sequence (P0DMS8 1-318)
As to the kind of experiment: Saturation binding of radioligand of Compound 108, HL60 membranes.

Assay [6] concerns the target T7, adenosine A3 receptors in Jurkat cell membranes (Homo sapiens, UniProt P0DMS8).
T7 construct: endogenous in cells; host or cells: Jurkat (human T-cell leukaemia)
T7 sequence (P0DMS8 1-318): T4 sequence (P0DMS8 1-318)
As to the kind of experiment: Saturation binding of radioligand of Compound 108, Jurkat cell membranes.

Structures can show the parent of a compound that is named as a salt.

T3 sequence (P29274 whole entry): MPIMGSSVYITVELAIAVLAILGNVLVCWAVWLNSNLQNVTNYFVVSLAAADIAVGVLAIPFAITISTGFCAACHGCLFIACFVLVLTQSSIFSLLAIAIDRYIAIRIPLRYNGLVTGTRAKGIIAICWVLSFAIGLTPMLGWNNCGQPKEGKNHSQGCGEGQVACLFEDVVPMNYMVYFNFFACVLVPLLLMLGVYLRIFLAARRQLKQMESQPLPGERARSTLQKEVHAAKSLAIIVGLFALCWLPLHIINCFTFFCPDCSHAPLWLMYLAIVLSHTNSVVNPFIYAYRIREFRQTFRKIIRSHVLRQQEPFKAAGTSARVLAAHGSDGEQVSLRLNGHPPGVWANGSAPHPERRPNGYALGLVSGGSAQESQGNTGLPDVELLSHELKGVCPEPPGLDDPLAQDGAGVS

In general, Ki refers to a dissociation constant, usually derived from enzyme kinetics or from competition with a known ligand. Regarding `CCN(CC)c1ccc(NC(=O)Nc2nc3nn(C)cc3c3nc(-c4ccco4)nn23)cc1` [Compound 101, N-[4-(diethylamino)phenyl]-N′-[2-(2-furyl)-8-methyl-8H -pyrazolo[4,3-e][1,2,4]triazolo[1,5-c]pyrimidin-5-yl]urea], the values for the Ki in assay [1], in assay [2] and in assay [3] were 580 nM, 350 nM and 523 nM, respectively.
The corresponding values for `CCN(CC)c1ccc(NC(=O)Nc2nc3nn(C)cc3c3nc(-c4ccco4)nn23)cc1` [Compound 102, N-[8-methyl-2-(2-furyl)-8H-pyrazolo[4,3-e][1,2,4]triazolo[1,5-c]pyrimidin-5-yl]-N′-[4-(diethylamino)phenyl]urea hydrochloride] are 680 nM, 276 nM and 593 nM.
Turning to `CN(C)c1ccc(NC(=O)Nc2nc3nn(C)cc3c3nc(-c4ccco4)nn23)cc1` [Compound 103, N-[8-methyl-2-(2-furyl)-8H-pyrazolo[4,3-e][1,2,4]triazolo[1,5-c]pyrimidin-5-yl]-N′-[4-(dimethylamino)phenyl]urea hydrochloride], the Ki in assay [1] is greater than 10000 nM; in assay [2] it was 609 nM; in assay [3], greater than 10000 nM.
Regarding `Cn1cc2c(nc(NC(=O)Nc3ccc(S(=O)(=O)N4CCOCC4)cc3)n3nc(-c4ccco4)nc23)n1` [Compound 104], the Ki in assay [1] came out at 726 nM. Moreover, in assay [4], the Ki came to 2.47 nM, the hA1/hA3 is given as 294, the hA2A/hA3 was 566 and the hA2B/hA3 is recorded as 4050. In addition, the Ki in assay [2] is greater than 10000 nM. Besides, the inhibition constant (Ki) in assay [3] is 1400 nM.
As for `CN1CCN(S(=O)(=O)c2ccc(NC(=O)Nc3nc4nn(C)cc4c4nc(-c5ccco5)nn34)cc2)CC1` [Compound 105, N-[2-(2-furyl)-8-methyl-8H-pyrazolo[4,3-e][1,2,4]triazolo[1,5-c]pyrimidin-5-yl]-N′{-4-[(4-methylpiperazin-1-yl)sulfonyl]-phenyl}urea], the Ki in assay [1] was greater than 1000 nM. Further, in assay [4], the Ki worked out at 29 nM, the hA1/hA3 is given as 34.5, the hA2A/hA3 is given as 34.5 and the hA2B/hA3 was 34.5. In addition, the Ki in assay [2] is greater than 1000 nM. The Ki in assay [3] was greater than 1000 nM.
On to `Cn1cc2c(nc(NC(=O)Nc3ccncc3)n3nc(-c4ccco4)nc23)n1` [Compound 106, N-[2-(2-furyl)-8-methyl-8H-pyrazolo[4,3-e][1,2,4]triazolo[1,5-c]pyrimidin-5-yl]-N′-pyridin-4-yl urea], for which the Ki was determined as 250 nM in assay [1], 200 nM in assay [2] and 60 nM in assay [3]. The “potency of adenosine A3 antagonism (block of C1-IB-MECA induced inhibition of cAMP production)” value at adenosine A3 receptor is “comparable”.
For `CCCn1cc2c(nc(NC(=O)Nc3ccc(OC)cc3)n3nc(-c4ccco4)nc23)n1` [Compound 108, 5-[[(4-methoxyphenyl)amino]carbonyl]amino-8-propyl-2-(2-furyl)-pyrazolo[4, 3]-e-1 ,2,4-triazolo[1,5-c]pyrimidine], the Ki in assay [1] came out at 1200 nM; in assay [3], 141 nM.
Take `CCn1cc2c(nc(NC(=O)Nc3ccc(OC)cc3)n3nc(-c4ccco4)nc23)n1` [Compound 109]: the Ki in assay [1] is 1030 nM. In assay [4], the inhibition constant Ki came out at 0.28 nM, the hA1/hA3 worked out at 3660 and the hA2A/hA3 came to 3730. Also, the inhibitory constant (Ki) in assay [3] was found to be 1040 nM.
Take `[3H]CC([3H])Cn1cc2c(nc(NC(=O)Nc3ccc(OC)cc3)n3nc(-c4ccco4)nc23)n1` (centres unmarked) [radioligand of Compound 108, 5-[[(4-methoxyphenyl)amino]carbonyl]amino-8-(1,2-ditritiopropyl)-2-(2-furyl)-pyrazolo[4,3-e]1,2,4-triazolo[1,5-c]pyrimidine]: the “Bmax value / A3 receptor density detected” value in assay [5] (FIG. 5) is 626±42 fmol/mg protein; in assay [5] (FIG. 5, listed as tritiated analogue of Compound 108) it was roughly 650 fmol/mg protein. Further, the Bmax value in assay [6] (Jurkat cell membranes, FIG. 4, n=3) came to 1.30±0.03 pmol/mg protein. In assay [6] (Jurkat cells), the “A3 receptor density detected” value was “approximately 1300 fmol/mg protein”.

For the origin of these results see patent US7271171B2, “Adenosine A3 receptor modulators” (King Pharmaceuticals Research and Development, Inc., priority 1998, dated 2007).
